Experimental findings from patent US20190119282A1, “IMIDAZOPYRIDAZINES USEFUL AS INHIBITORS OF THE PAR-2 SIGNALING PATHWAY” (Vertex Pharmaceuticals Incorporated, priority 2013, published 2019) are described below.

Some results are limits rather than exact numbers.

In experiment [1] the target is T1, PAR2 (HT-29 cells, trypsin activation) (Homo sapiens, UniProt P55085).
T1 construct: host or cells: HT-29 cells
T1 sequence (P55085 26-397): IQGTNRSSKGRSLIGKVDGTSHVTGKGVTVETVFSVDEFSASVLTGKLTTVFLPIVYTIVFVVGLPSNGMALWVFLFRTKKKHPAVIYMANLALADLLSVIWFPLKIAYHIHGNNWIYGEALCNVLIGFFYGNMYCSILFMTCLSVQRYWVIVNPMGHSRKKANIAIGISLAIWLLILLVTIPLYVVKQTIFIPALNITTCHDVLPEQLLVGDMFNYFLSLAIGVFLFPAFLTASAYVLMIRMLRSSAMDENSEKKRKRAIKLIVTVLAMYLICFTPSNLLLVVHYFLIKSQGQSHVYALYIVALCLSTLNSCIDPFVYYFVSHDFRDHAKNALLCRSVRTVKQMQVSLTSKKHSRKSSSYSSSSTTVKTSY
As to the kind of experiment: Ca FLIPR TETRA assay, ANTAGONIST mode, stimulation with 3.1 U/mL trypsin. Type of experiment: cell-based. The following applies: HT-29 cells, antagonist mode, stimulation with 3.1 U/mL trypsin. In outline:
(§1)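 Inhibition of activator-evoked Ca2+ flux was recorded on FLIPR Tetra in HT-29 cells after 30 min compound exposure at r.t. A prior read checked whether compounds alone triggered Ca2+ release.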

The target in experiment [2] is T2, PAR2 (HT-29 cells, SLIGKV activation) (Homo sapiens, UniProt P55085).
T2 construct: host or cells: HT-29 cells
T2 sequence (P55085 26-397): T1 sequence (P55085 26-397)
In words: Ca FLIPR TETRA assay, ANTAGONIST mode, stimulation with 8 μM SLIGKV. The format is cell-based. Particulars: HT-29 cells, antagonist mode, stimulation with 8 μM SLIGKV. The gist of the method:
as §1

Experiment [3] deals with Thrombin-stimulated Ca2+ response in HT-29 cells. In words: Ca FLIPR TETRA assay, ANTAGONIST mode, stimulation with 1 U/mL Thrombin. The format is cell-based, human. Particulars: Homo sapiens; HT-29 cells, antagonist mode, stimulation with 1 U/mL Thrombin. In outline: as §1
For experiment [4], the system named is UTP-stimulated Ca2+ response in HT-29 cells. In words: Ca FLIPR TETRA assay, ANTAGONIST mode, stimulation with 0.6 μM UTP. The following applies: Homo sapiens; HT-29 cells, antagonist mode, stimulation with 0.6 μM UTP. The format is cell-based, human. In outline: as §1

`CC(C)c1cc(-c2ccc(C(F)(F)F)cc2)nn2cc(C(=O)N3CCN(C(=O)C4CC(C)(O)C4)CC3(C)C)nc12` (stereo not shown) [Compound I-371]: the 50% inhibitory concentration (IC50) was 1.6 nM in experiment [1], 1.3 nM in experiment [2], > 1000 nM in experiment [3] and > 1000 nM in experiment [4].

For `Cc1nc(C(=O)N2CCN(C(=O)c3cn4nc(-c5ccc(C(F)(F)F)cc5)cc(C(C)C)c4n3)C(C)(C)C2)c[nH]1` [Compound I-372], the IC50 was 5.6 nM in experiment [1], 4.5 nM in experiment [2], > 1000 nM in experiment [3] and > 1000 nM in experiment [4].

Take `Cc1ccc(-c2cc(C(C)C)c3nc(C(=O)N4CCN(C(=O)c5ncccn5)CC4(C)C)cn3n2)cc1F` [Compound I-373]: the IC50 in experiment [1] is 8.1 nM; in experiment [2] it was 6.5 nM; in experiment [3], > 1000 nM; in experiment [4], > 1000 nM.

For `Cc1ccc(-c2cc(C(C)C)c3nc(C(=O)N4CCN(C(=O)c5ccn[nH]5)CC4(C)C)cn3n2)cc1F` [Compound I-374], the IC50 in experiment [1] was 1.6 nM; in experiment [2], 1.4 nM; in experiment [3] it was > 1000 nM; in experiment [4], > 1000 nM.

As to `Cc1ccc(-c2cc(C(C)C)c3nc(C(=O)N4CCN(C(=O)c5ccccn5)CC4(C)C)cn3n2)cc1F` [Compound I-375], the IC50 in experiment [1] was 3.8 nM; in experiment [2] it was 2.3 nM; in experiment [3] it was > 1000 nM; in experiment [4], > 1000 nM.

Regarding `Cc1nc(C(=O)N2CCN(C(=O)c3cn4nc(-c5ccc(C)c(F)c5)cc(C(C)C)c4n3)C(C)(C)C2)c[nH]1` [Compound I-376], the IC50 was 3.2 nM in experiment [1], 2 nM in experiment [2], > 1000 nM in experiment [3] and > 1000 nM in experiment [4].

In the case of `Cc1cc(-c2cc(C(C)C)c3nc(C(=O)N4CCN(C(=O)c5ncccn5)CC4(C)C)cn3n2)ccc1F` [Compound I-377], the IC50 was 29 nM in experiment [1], 19 nM in experiment [2], > 1000 nM in experiment [3] and > 1000 nM in experiment [4].

`Cc1cc(-c2cc(C(C)C)c3nc(C(=O)N4CCN(C(=O)C5CC(C)(O)C5)CC4(C)C)cn3n2)ccc1F` (stereo not shown) [Compound I-378]: the IC50 is 7.2 nM in experiment [1], 5 nM in experiment [2], > 1000 nM in experiment [3] and > 1000 nM in experiment [4].

In the case of `Cc1cc(-c2cc(C(C)C)c3nc(C(=O)N4CCN(C(=O)c5ccccn5)CC4(C)C)cn3n2)ccc1F` [Compound I-379], the IC50 in experiment [1] is 10.5 nM; in experiment [2], 9.4 nM; in experiment [3], > 1000 nM; in experiment [4], > 1000 nM.

Regarding `Cc1nc(C(=O)N2CCN(C(=O)c3cn4nc(-c5ccc(F)c(C)c5)cc(C(C)C)c4n3)C(C)(C)C2)c[nH]1` [Compound I-380], the IC50 was 7.4 nM in experiment [1], 8.3 nM in experiment [2], > 1000 nM in experiment [3] and > 1000 nM in experiment [4].

On to `Cc1cc(-c2cc(C(C)(C)C)c3nc(C(=O)N4CCN(C(=O)c5ccn[nH]5)CC4(C)C)cn3n2)ccc1F` [Compound I-381], for which the IC50 in experiment [1] was 1.2 nM; in experiment [2], 1.3 nM; in experiment [3], > 1000 nM; in experiment [4], > 1000 nM.

For the molecule `Cc1cc(C(=O)N2CCN(C(=O)c3cn4nc(-c5ccc(F)c(C)c5)cc(C(C)(C)C)c4n3)C(C)(C)C2)[nH]n1` [Compound I-382], the IC50 in experiment [1] was 0.7 nM; in experiment [2] it was 0.6 nM; in experiment [3], > 1000 nM; in experiment [4] it was > 1000 nM.

In the case of `Cc1nc(C(=O)N2CCN(C(=O)c3cn4nc(-c5ccc(F)c(C)c5)cc(C(C)(C)C)c4n3)C(C)(C)C2)c[nH]1` [Compound I-383], the IC50 in experiment [1] was 2.9 nM; in experiment [2], 1.9 nM; in experiment [3], > 1000 nM; in experiment [4] it was > 1000 nM.

As to `Cc1cc(-c2cc(C(C)(C)C)c3nc(C(=O)N4CCN(C(=O)C5CC(C)(O)C5)CC4(C)C)cn3n2)ccc1F` (stereo not shown) [Compound I-384], the IC50 was 0.8 nM in experiment [1], 0.6 nM in experiment [2], > 1000 nM in experiment [3] and > 1000 nM in experiment [4].

With `Cc1nnc(C(=O)N2CCN(C(=O)c3cn4nc(-c5ccc(F)c(C)c5)cc(C(C)(C)C)c4n3)C(C)(C)C2)o1` [Compound I-385], the IC50 was 4.3 nM in experiment [1], 2.2 nM in experiment [2], > 1000 nM in experiment [3] and > 1000 nM in experiment [4].

For `Cc1cc(-c2cc(C(C)(C)C)c3nc(C(=O)N4CCN(C(=O)c5ccccn5)CC4(C)C)cn3n2)ccc1F` [Compound I-386], the IC50 in experiment [1] was 2.6 nM; in experiment [2], 1.7 nM; in experiment [3] it was > 1000 nM; in experiment [4], > 1000 nM.

Turning to `Cc1cc(-c2cc(C(C)(C)C)c3nc(C(=O)N4CCN(C(=O)c5ncccn5)CC4(C)C)cn3n2)ccc1F` [Compound I-387], the IC50 in experiment [1] is 3.1 nM; in experiment [2] it was 1.4 nM; in experiment [3] it was > 1000 nM; in experiment [4] it was > 1000 nM.

`Cc1cc(-c2cc(C(C)C)c3nc(C(=O)N4CCN(c5c[nH]cn5)C(=O)C4(C)C)cn3n2)ccc1F` [Compound I-388]: the IC50 is 15.5 nM in experiment [1], 12.5 nM in experiment [2], > 1000 nM in experiment [3] and > 1000 nM in experiment [4].

Regarding `Cc1nc(N2CCN(C(=O)c3cn4nc(-c5ccc(F)c(C)c5)cc(C(C)C)c4n3)C(C)(C)C2=O)c[nH]1` [Compound I-389], the IC50 in experiment [1] was 25 nM; in experiment [2], 20 nM; in experiment [3] it was > 1000 nM; in experiment [4], > 1000 nM.

Turning to `Cc1cc(C(=O)N2CCN(C(=O)c3cn4nc(-c5ccc(C(F)(F)F)cc5)cc(C(C)C)c4n3)C(C)(C)C2)[nH]n1` [Compound I-390], the IC50 was 1.3 nM in experiment [1], 1 nM in experiment [2], > 1000 nM in experiment [3] and > 1000 nM in experiment [4].

For `Cc1ccc(-c2cc(C(C)(C)C)c3nc(C(=O)N4CCN(C(=O)c5ccccn5)CC4(C)C)cn3n2)cc1` [Compound I-391], the IC50 in experiment [1] was 2.2 nM; in experiment [2], 1.8 nM; in experiment [3], > 1000 nM; in experiment [4] it was > 1000 nM.

In the case of `Cc1ccc(-c2cc(C(C)(C)C)c3nc(C(=O)N4CCN(C(=O)c5ncccn5)CC4(C)C)cn3n2)cc1` [Compound I-392], the IC50 was 2.5 nM in experiment [1], 1.4 nM in experiment [2], > 1000 nM in experiment [3] and > 1000 nM in experiment [4].

`Cc1ccc(-c2cc(C(C)(C)C)c3nc(C(=O)N4CCN(C(=O)c5nnc(C)o5)CC4(C)C)cn3n2)cc1` [Compound I-393]: the IC50 was 1.5 nM in experiment [1], 1.6 nM in experiment [2], > 1000 nM in experiment [3] and > 1000 nM in experiment [4].

`Cc1ccc(-c2cc(C(C)(C)C)c3nc(C(=O)N4CCN(C(=O)c5ccn[nH]5)CC4(C)C)cn3n2)cc1` [Compound I-394]: the IC50 in experiment [1] is 1.1 nM; in experiment [2], 0.9 nM; in experiment [3] it was > 1000 nM; in experiment [4] it was > 1000 nM.

`Cc1ccc(-c2cc(C(C)(C)C)c3nc(C(=O)N4CCN(C(=O)c5cc(C)n[nH]5)CC4(C)C)cn3n2)cc1` [Compound I-395]: the half-maximal inhibitory concentration (IC50) in experiment [1] is 0.5 nM; in experiment [2], 0.6 nM; in experiment [3] it was > 1000 nM; in experiment [4], > 1000 nM.

Regarding `Cc1ccc(-c2cc(C(C)(C)C)c3nc(C(=O)N4CCN(C(=O)[C@H]5C[C@@](C)(O)C5)CC4(C)C)cn3n2)cc1` [Compound I-396], the IC50 in experiment [1] is 0.7 nM; in experiment [2], 0.4 nM; in experiment [3] it was > 1000 nM; in experiment [4], > 1000 nM.

As for `Cc1ccc(-c2cc(C(C)(C)C)c3nc(C(=O)N4CCN(C(=O)c5nc(C)n[nH]5)CC4(C)C)cn3n2)cc1` [Compound I-397], the IC50 in experiment [1] was 0.6 nM; in experiment [2], 0.6 nM; in experiment [3], > 1000 nM; in experiment [4], > 1000 nM.

On to `CC(C)(C)c1cc(-c2ccc(C(F)(F)F)cc2)nn2cc(C(=O)N3CCN(C(=O)c4ccccn4)CC3(C)C)nc12` [Compound I-398], for which the IC50 in experiment [1] was 2.6 nM; in experiment [2] it was 3.1 nM; in experiment [3], > 1000 nM; in experiment [4], > 1000 nM.

Regarding `CC(C)(C)c1cc(-c2ccc(C(F)(F)F)cc2)nn2cc(C(=O)N3CCN(C(=O)c4ncccn4)CC3(C)C)nc12` [Compound I-399], the IC50 in experiment [1] was 1.5 nM; in experiment [2], 1.8 nM; in experiment [3], > 1000 nM; in experiment [4] it was > 1000 nM.

Regarding `Cc1nnc(C(=O)N2CCN(C(=O)c3cn4nc(-c5ccc(C(F)(F)F)cc5)cc(C(C)(C)C)c4n3)C(C)(C)C2)o1` [Compound I-400], the IC50 in experiment [1] is 2.8 nM; in experiment [2], 3.6 nM; in experiment [3] it was > 1000 nM; in experiment [4] it was > 1000 nM.

Turning to `CC(C)(C)c1cc(-c2ccc(C(F)(F)F)cc2)nn2cc(C(=O)N3CCN(C(=O)c4ccn[nH]4)CC3(C)C)nc12` [Compound I-401], the IC50 in experiment [1] is 1.5 nM; in experiment [2], 2.1 nM; in experiment [3] it was > 1000 nM; in experiment [4], > 1000 nM.
